These results are taken from patent US5872210A (priority 1995, dated 1999).

Series [1] deals with T1, HIV-1 protease (Human immunodeficiency virus type 1 group M subtype B, UniProt P04585). In words: HIV-1 protease hydrolysis of synthetic cleavage-site peptide substrates (RP-HPLC, Lineweaver-Burk). The series is classed as biochemical. On the procedure: […] Reactions were terminated with 190 μl of a solution of 8M guanidine hydrochloride and 1% trifluroacetic acid (TFA) and subjected to reverse-phase high performance liquid chromotography ("RP-HPLC") on a C18 column. The substrate and cleavage products were separated with a linear gradient of 0 to 50% acetonitrile in water containing 0.05% TFA. The identity of the cleavage products was confirmed by electrospray mass spectroscopy. Peak areas were integrated using the Turbochrom 4 software (Perkin Elmer, San Jose, Calif.). Lineweaver-Burk analysis was used to determine kcat and Km.

Series [2] concerns the target T1, HIV-1 protease. In words: biochemical. The protocol: HIV-1 protease was obtained and its active site concentration was determined at 25° C. Purified enzyme was stored as a 5-8 μM stock solution in 50 mM NaOAc (pH 5.0), 1 mM DTT, 1 mM EDTA, 0.05% reduced Triton X-100 at -80° C. Porcine pepsin was prepared as 1-2 mg/ml in 50 mM formic acid (pH 3.0). The peptide concentrations were adjusted for their protein content.
HIV-1 protease activity was measured at 25° C. using substrate I (Lys-Ala-Arg-Val-Nle-Phe (NO2) -Glu-Ala-Nle-NH2 wherein Nle is norleucine and Phe (NO2) is 4-nitrophenylalamine). In a typical assay, 2.5 μl of enzyme was added to 97.5 μl of buffer and 2.5 mM DTT in the presence or absence of varying concentrations of inhibitor. The reaction was initiated by the addition of 10 μl of a 4 mM solution of substrate I in water and monitored by following the decrease in absorption at […] in a 100 μl spectrophotometric cell. Pepsin was assayed using substrate II (Phe-Gly-His-Phe(NO2)-Phe-Ala-PheOCH3). […] Concentrations of substrate solutions were determined spectrophotometrically at […].
The enzyme was assayed in the presence of the inhibitor in 50 mM sodium formate at pH 4.25 and 2.5 mM DTT. […] Peptides 12a and 12b were assayed at pH 4.4 and contained 0.083% and 0.02% DMSO, respectively.

Series [3] concerns mature HIV-1 protease. Nature of the series: 50 mM sodium acetate, pH 5.0 or 100 mM sodium phosphate at pH 5.5 containing 1 mM DTT, 1 mM EDTA, 1M NaCl. The settings on record: 37° C.
The target of series [4] is T1, HIV-1 protease. Nature of the series: biochemical. Conditions: 1M NaCl, 50 mM sodium formate, pH 4.0, 2.5 mM DTT, 25° C.
[5] abbreviates: Ki, 50 mM sodium formate pH 4.25, 2.5 mM DTT, substrate I 390 μM, 25° C., peptides 1, 2, 4 from apparent Km vs [I], others from 1/V vs [I].
[6] abbreviates: Ki, pH 4.4, 0.083% (12a) and 0.02% (12b) DMSO, 1/V vs [I].
Where [7] appears, read: Ki, NaCl 0 M, 50 mM sodium formate pH 4.25, 2.5 mM DTT, 1/V vs [I].
Setting [8] is: Ki, NaCl 1 M, 50 mM sodium formate pH 4.25, 2.5 mM DTT, 1/V vs [I].

Read-outs that look alike come from different tables or passages of the source. Where a SMILES comes first, the peptide text is derived from it. Where no end group is shown, it is not given here. A value given as a limit tells only on which side of the number the result lay.

With RKIL*FLDG, the “kcat /Km” value in series [1] (Pol cleavage sites) was found to be 200.0 mM⁻¹ s⁻¹.

As for `N[C@@H](CC(=O)O)C(=O)O` [Peptide 17, Aspartic acid, reference compound], the Ki in series [2] is greater than 50000 µM.

With RQAN*FLGK, in series [1] (Gag cleavage sites), the “kcat /Km” value was found to be 1.6 mM⁻¹ s⁻¹.

With SFNF*PQIT, the “kcat /Km” value in series [1] (Pol cleavage sites) turned out to be 7.0 mM⁻¹ s⁻¹.

Consider “FLRQNLAF [Peptide 18, Phe--Leu--Arg--Gln--Asn--Leu--Ala--Phe]”, for which, in series [2] (setting [5]), the Ki turned out to be 2000 µM.

As for `N=C(N)NCCC[C@H](N)C(=O)N[C@@H](CCC(=O)O)C(=O)N[C@@H](CC(=O)O)C(=O)O` [Peptide 5, Arg--Glu--Asp] (H-Arg-Glu-Asp-OH), the Ki in series [2] (setting [5]) came out at 3360 ± 400 µM.

As to ATIM*MQRG, the “kcat /Km” value in series [1] (Gag cleavage sites) was determined as 74.0 mM⁻¹ s⁻¹.

For DLAFLQGK, the cleaved bond entry in series [3] was “Phe-Leu”.

Turning to AETF*YVDG, the “kcat /Km” value in series [1] (Pol cleavage sites) came to 10.0 mM⁻¹ s⁻¹.

Take `CC(C)C[C@H](NC(=O)[C@H](CC(=O)O)NC(=O)[C@@H](N)CCC(=O)O)C(=O)N[C@@H](C)C(=O)O` [Peptide 3, Glu--Asp--Leu--Ala] (H-EDLA-OH): in series [2] (setting [5]), the Ki came out at 160 ± 20 µM.

On to `N[C@@H](Cc1ccccc1)C(=O)N[C@@H](CC(=O)O)C(=O)N[C@@H](CC(=O)O)C(=O)N[C@@H](Cc1ccccc1)C(=O)O` [Peptide 12b, Phe--Asp--Asp--Phe] (H-FDDF-OH), for which the Ki in series [2] (setting [6]) is 55 ± 14 µM.

With “FLREDLAF [Peptide 1, Phe--Leu--Arg--Glu--Asp--Leu--Ala--Phe]”, the Ki in series [2] came out at 98 ± 10 µM.

In the case of “DLAFLQGK [DLAF*LQGK, Asp-Leu-Ala-Phe-Leu-Gln-Gly-Lys]”, in series [1] (Pol cleavage sites), the “kcat /Km” value stood at 1.2 mM⁻¹ s⁻¹.

In the case of TLNF*PISP, the “kcat /Km” value in series [1] (Pol cleavage sites) stood at 24.0 mM⁻¹ s⁻¹.

As for `NC(=O)CC[C@H](NC(=O)[C@@H](N)CC(=O)O)C(=O)O` [Peptide 15, Asp--Gln] (H-Asp-Gln-OH), the Ki in series [2] (setting [5]) is greater than 1000 µM.

Take `CC(C)C[C@H](NC(=O)[C@H](CC(=O)O)NC(=O)[C@@H](N)CC(=O)O)C(=O)O` [Peptide 9, Asp--Asp--Leu] (H-Asp-Asp-Leu-OH): the Ki in series [2] (setting [5]) was 140 ± 6 µM.

For ERQANFLRED, the cleaved bond result in series [3] is on record as “Asn-Phe”.

The compound `N[C@@H](CCC(=O)O)C(=O)O` [Peptide 16, Glutamic acid, reference compound] showed a Ki in series [2] greater than 50000 µM.

Take ARVL*AEAM: in series [1] (Gag cleavage sites), the “kcat /Km” value is 90.0 mM⁻¹ s⁻¹.

On to `N[C@@H](CC(=O)O)C(=O)N[C@@H](CCC(=O)O)C(=O)O` [Peptide 14, Asp--Glu] (H-Asp-Glu-OH), for which the Ki in series [2] (setting [5]) is 5400 ± 380 µM.

In turn, `N[C@@H](CC(=O)O)C(=O)N[C@@H](CC(=O)O)C(=O)O` [Peptide 13, Asp--Asp] (H-Asp-Asp-OH) had a Ki in series [2] of 970 ± 140 µM.

“GEDLAF [Peptide 2, Gly--Glu--Asp--Leu--Ala--Phe]”: in series [2] (setting [5]), the Ki amounted to 64 ± 13 µM.

Take `CC(C)C[C@H](NC(=O)[C@H](CCC(=O)O)NC(=O)[C@@H](N)CCC(=O)O)C(=O)O` [Peptide 8, Glu--Glu--Leu] (H-Glu-Glu-Leu-OH): in series [2] (setting [5]), the Ki worked out at 310 ± 25 µM.

Take SQNY*PIVQ: the “kcat /Km” value in series [1] (Gag cleavage sites) is 45.0 mM⁻¹ s⁻¹.

For the compound `CC(C)C[C@H](NC(=O)[C@H](CCC(=O)O)NC(=O)[C@@H](N)CC(=O)O)C(=O)O` [Peptide 7, Asp--Glu--Leu] (H-Asp-Glu-Leu-OH), the Ki in series [2] (setting [5]) amounted to 230 ± 20 µM.

For the compound “ERQANFLRED [ERQAN*FLRED, Glu-Arg-Gln-Ala-Asn-Phe-Leu-Arg-Glu-Asp]”, in series [1] (Pol cleavage sites), the “kcat /Km” value stood at 1.9e-05 mM⁻¹ s⁻¹.

Regarding `N[C@@H](CCC(=O)O)C(=O)N[C@@H](CC(=O)O)C(=O)N[C@@H](Cc1ccccc1)C(=O)O` [Peptide 12, Glu--Asp--Phe] (H-Glu-Asp-Phe-OH), the Ki in series [4] was 0.41 ± 0.025 mM; in series [2] (setting [5]), 25 ± 3 µM; in series [2] (setting [7]), 15 ± 2 µM; in series [2] (setting [8]) it was 410 ± 25 µM.

PGNF*LQSR: in series [1] (Gag cleavage sites), the “kcat /Km” value is 0.6 mM⁻¹ s⁻¹.

On to Glu--Lys--Phe (EKF) [Peptide 11], for which the Ki in series [2] (50 mM sodium formate pH 4.25, 2.5 mM DTT, substrate I 390 μM, 25° C., peptides 1, 2, 4 from apparent Km vs [I], others from 1/V vs [I], read-out: Ki) stood at 2010 ± 360 µM.

Take `N[C@@H](CC(=O)O)C(=O)N[C@@H](CC(=O)O)C(=O)N[C@@H](Cc1ccccc1)C(=O)O` [Peptide 12a, Asp--Asp--Phe] (H-Asp-Asp-Phe-OH): in series [2] (setting [6]), the Ki stood at 43 ± 7 µM.

Consider `CC(C)C[C@H](NC(=O)[C@H](CC(N)=O)NC(=O)[C@@H](N)CCC(=O)O)C(=O)O` [Peptide 10, Glu--Asn--Leu] (H-Glu-Asn-Leu-OH), for which the Ki in series [2] (setting [5]) was found to be 3070 ± 210 µM.

As for `CC(C)C[C@H](NC(=O)[C@@H](N)CC(=O)O)C(=O)N[C@@H](C)C(=O)N[C@@H](Cc1ccccc1)C(=O)O` [Peptide 6, Asp--Leu--Ala--Phe] (H-DLAF-OH), the Ki is 3.26 ± 0.39 mM in series [4], 270 ± 25 µM in series [2] (setting [5]), 270 ± 25 µM in series [2] (setting [7]) and 3260 ± 390 µM in series [2] (setting [8]).
